Measured values published in ChEMBL document CHEMBL4480391, “Discovery and synthesis of sulfur-containing 6-substituted 5,8-dimethoxy-1,4-naphthoquinone oxime derivatives as new and potential anti-MDR cancer agents” (Eur J Med Chem, 2019).
Active and inactive are the calls of the source. No cut-off for these calls is given here.

Columns and labels:
HCT-15 [1] = experiment: Cytotoxicity against human HCT15 cells after 72 hrs by MTT assay; format: functional, cell-based; conditions: HCT-15, 72 h
MGC-803 [2] = experiment: Cytotoxicity against human MGC803 cells after 72 hrs by MTT assay; format: functional, cell-based; conditions: MGC-803, 72 h
K562 [3] = experiment: Cytotoxicity against human K562 cells after 72 hrs by MTT assay; format: functional, cell-based; conditions: K562, 72 h
[4] = Cytotoxicity against human HSF cells after 72 hrs by MTT assay; format: cell-based
[5] = Selectivity index, ratio of IC50 for human HSF cells to IC50 for human HCT15 cells; format: toxicity; conditions: HSF cells versus HCT15 cells, read-out: Ratio IC50
HCT-15 [6] = experiment: Potency index, ratio of shikonin IC50 to test compound IC50 for human HCT15 cells; format: functional
MGC-803 [7] = experiment: Potency index, ratio of shikonin IC50 to test compound IC50 for human MGC803 cells; format: functional
K562 [8] = experiment: Potency index, ratio of shikonin IC50 to test compound IC50 for human K562 cells; format: functional
[9] = Cytotoxicity against human […] cells after 72 hrs by MTT assay; format: functional, cell-based
Bel7402/5-FU [10] = experiment: Cytotoxicity against human Bel7402/5-FU cells after 72 hrs by MTT assay; format: functional, cell-based
MCF7 = experiment: Cytotoxicity against human MCF7 cells after 72 hrs by MTT assay; format: functional, cell-based; conditions: MCF7, 72 h
NCI/ADR-RES = experiment: Cytotoxicity against human MCF7/ADR cells after 72 hrs by MTT assay; format: functional, cell-based
A549 = experiment: Cytotoxicity against human A549 cells after 72 hrs by MTT assay; format: functional, cell-based; conditions: A549, 72 h
A549/TR = experiment: Cytotoxicity against human A549/TAX cells after 72 hrs by MTT assay; format: functional, cell-based
[11] = Selectivity ratio of IC50 for human […] cells to IC50 for human Bel7402/5-FU cells; format: functional
[12] = Selectivity ratio of IC50 for human MCF7 cells to IC50 for human MCF7/ADR cells; format: functional
[13] = Selectivity ratio of IC50 for human A549 cells to IC50 for human A549/TAX cells; format: functional
Bel7402/5-FU [14] = experiment: Inhibition of colony formation in human Bel7402/5-FU cells up to 4 uM measured after 10 days by giemsa staining based assay; format: functional, cell-based
Bel7402/5-FU [15] = experiment: Cell cycle arrest in human Bel7402/5-FU cells assessed as decrease in accumulation at S phase at 0.25 to 1 uM measured after 24 hrs by propidium iodide staining based flow cytometry; format: functional
Bel7402/5-FU [16] = experiment: Cell cycle arrest in human Bel7402/5-FU cells assessed as decrease in accumulation at G2/M phase at 0.25 to 1 uM measured after 24 hrs by propidium iodide staining based flow cytometry; format: functional
Bel7402/5-FU [17] = experiment: Cell cycle arrest in human Bel7402/5-FU cells assessed as accumulation at G1 phase at 0.25 uM measured after 24 hrs by propidium iodide staining based flow cytometry (reference value: 26.32%); format: functional
Bel7402/5-FU [18] = experiment: Cell cycle arrest in human Bel7402/5-FU cells assessed as accumulation at G1 phase at 0.5 uM measured after 24 hrs by propidium iodide staining based flow cytometry (reference value: 26.32%); format: functional
Bel7402/5-FU [19] = experiment: Cell cycle arrest in human Bel7402/5-FU cells assessed as accumulation at G1 phase at 1 uM measured after 24 hrs by propidium iodide staining based flow cytometry (reference value: 26.32%); format: functional
Bel7402/5-FU [20] = experiment: Cell cycle arrest in human Bel7402/5-FU cells assessed as increase in accumulation at G1 phase measured after 24 hrs by propidium iodide staining based flow cytometry; format: functional
Bel7402/5-FU [21] = experiment: Induction of apoptosis in human Bel7402/5-FU cells assessed as cell shrinkage at 0.5 to 2 uM measured after 24 hrs by Hoechst 33342/propidium iodide staining based fluorescence microscopy; format: functional
Bel7402/5-FU [22] = experiment: Induction of apoptosis in human Bel7402/5-FU cells assessed as nuclear fragmentation at 0.5 to 2 uM measured after 24 hrs by Hoechst 33342/propidium iodide staining based fluorescence microscopy; format: functional, cell-based
Bel7402/5-FU [23] = experiment: Induction of apoptosis in human Bel7402/5-FU cells measured after 24 hrs by Annexin V-FITC/propidium iodide staining based flow cytometry; format: functional, cell-based
Bel7402/5-FU [24] = experiment: Induction of apoptosis in human Bel7402/5-FU cells assessed as viable cells at 0.5 uM measured after 24 hrs by Annexin V-FITC/propidium iodide staining based flow cytometry (reference value: 89%); format: functional; conditions: read-out: Activity
Bel7402/5-FU [25] = experiment: Induction of apoptosis in human Bel7402/5-FU cells assessed as early apoptotic cells at 0.5 uM measured after 24 hrs by Annexin V-FITC/propidium iodide staining based flow cytometry (reference value: 2.8%); format: functional
Bel7402/5-FU [26] = experiment: Induction of apoptosis in human Bel7402/5-FU cells assessed as late apoptotic cells at 0.5 uM measured after 24 hrs by Annexin V-FITC/propidium iodide staining based flow cytometry (reference value: 8.05%); format: functional
Bel7402/5-FU [27] = experiment: Induction of apoptosis in human Bel7402/5-FU cells assessed as necrotic cells at 0.5 uM measured after 24 hrs by Annexin V-FITC/propidium iodide staining based flow cytometry (reference value: 0.137%); format: functional
Bel7402/5-FU [28] = experiment: Induction of apoptosis in human Bel7402/5-FU cells assessed as viable cells at 1 uM measured after 24 hrs by Annexin V-FITC/propidium iodide staining based flow cytometry (reference value: 89%); format: functional; conditions: read-out: Activity
Bel7402/5-FU [29] = experiment: Induction of apoptosis in human Bel7402/5-FU cells assessed as early apoptotic cells at 1 uM measured after 24 hrs by Annexin V-FITC/propidium iodide staining based flow cytometry (reference value: 2.8%); format: functional
Bel7402/5-FU [30] = experiment: Induction of apoptosis in human Bel7402/5-FU cells assessed as late apoptotic cells at 1 uM measured after 24 hrs by Annexin V-FITC/propidium iodide staining based flow cytometry (reference value: 8.05%); format: functional
Bel7402/5-FU [31] = experiment: Induction of apoptosis in human Bel7402/5-FU cells assessed as necrotic cells at 1 uM measured after 24 hrs by Annexin V-FITC/propidium iodide staining based flow cytometry (reference value: 0.137%); format: functional
Bel7402/5-FU [32] = experiment: Induction of apoptosis in human Bel7402/5-FU cells assessed as viable cells at 2 uM measured after 24 hrs by Annexin V-FITC/propidium iodide staining based flow cytometry (reference value: 89%); format: functional; conditions: read-out: Activity
Bel7402/5-FU [33] = experiment: Induction of apoptosis in human Bel7402/5-FU cells assessed as early apoptotic cells at 2 uM measured after 24 hrs by Annexin V-FITC/propidium iodide staining based flow cytometry (reference value: 2.8%); format: functional
Bel7402/5-FU [34] = experiment: Induction of apoptosis in human Bel7402/5-FU cells assessed as late apoptotic cells at 2 uM measured after 24 hrs by Annexin V-FITC/propidium iodide staining based flow cytometry (reference value: 8.05%); format: functional
Bel7402/5-FU [35] = experiment: Induction of apoptosis in human Bel7402/5-FU cells assessed as necrotic cells at 2 uM measured after 24 hrs by Annexin V-FITC/propidium iodide staining based flow cytometry (reference value: 0.137%); format: functional
Bel7402/5-FU [36] = experiment: Induction of apoptosis in human Bel7402/5-FU cells assessed as increase in ratio of Bax/Bcl2 level at 0.5 to 4 uM measured after 24 to 48 hrs by Western blot analysis; format: functional, cell-based

Which IC50 (HCT-15 [1]) does the source give for `CCCCCCCCC(SC(=O)/C=C/c1ccccc1)c1cc(OC)c2c(c1OC)/C(=N/O)C=C/C2=N\O` (stereo not given) here?
The IC50 was 380 nM.

And the IC50 (MGC-803 [2])?
The IC50 was 790 nM.

What about the IC50 (K562 [3]) of the same compound?
The IC50 was 460 nM.

And the IC50 [4]?
The IC50 was > 50000 nM.

And the selectivity ratio [5]?
Its selectivity ratio is > 132.

And the “Ratio IC50” value (HCT-15 [6])?
The value was 2.

And the “Ratio IC50” value (MGC-803 [7])?
Its value is 2.

And the “Ratio IC50” value (K562 [8])?
Its value is 2.

And the IC50 [9]?
Its IC50 is 420 nM.

What about the IC50 (Bel7402/5-FU [10]) of the same compound?
The IC50 was 290 nM.

What about the IC50 (MCF7) of the same compound?
Its IC50 is 11100 nM.

And the IC50 (NCI/ADR-RES)?
Its IC50 is 1330 nM.

What about the IC50 (A549) of the same compound?
The IC50 was 6570 nM.

And the IC50 (A549/TR)?
Its IC50 is 720 nM.

And the “Ratio IC50” value [11]?
Its value is 1.45.

What about the “Ratio IC50” value [12] of the same compound?
Its value is 8.37.

What about the “Ratio IC50” value [13] of the same compound?
The value was 9.13.

And the inhibition (Bel7402/5-FU [14])?
Its inhibition is “Active”.

And the Activity (Bel7402/5-FU [15])?
The Activity was “Active”.

And the Activity (Bel7402/5-FU [16])?
Its Activity is “Active”.

And the Activity (Bel7402/5-FU [17])?
The Activity was 35.56%.

And the Activity (Bel7402/5-FU [18])?
Its Activity is 44.5%.

And the Activity (Bel7402/5-FU [19])?
The Activity was 50.69%.

What about the Activity (Bel7402/5-FU [20]) of the same compound?
Its Activity is “Dose-dependent effect”.

What about the Activity (Bel7402/5-FU [21]) of the same compound?
The Activity was “Active”.

What about the Activity (Bel7402/5-FU [22]) of the same compound?
The Activity was “Active”.

And the Activity (Bel7402/5-FU [23])?
The Activity was “Dose-dependent effect”.

What about the viability at 0.5 µM (Bel7402/5-FU [24]) of the same compound?
Its viability at 0.5 µM is 64.4%.

And the Activity (Bel7402/5-FU [25])?
Its Activity is 22.1%.

And the Activity (Bel7402/5-FU [26])?
Its Activity is 12.3%.

What about the Activity (Bel7402/5-FU [27]) of the same compound?
Its Activity is 1.17%.

What about the viability at 1 µM (Bel7402/5-FU [28]) of the same compound?
Its viability at 1 µM is 47.9%.

And the Activity (Bel7402/5-FU [29])?
Its Activity is 32.2%.

What about the Activity (Bel7402/5-FU [30]) of the same compound?
Its Activity is 15.2%.

What about the Activity (Bel7402/5-FU [31]) of the same compound?
Its Activity is 4.64%.

What about the viability at 2 µM (Bel7402/5-FU [32]) of the same compound?
Its viability at 2 µM is 10.7%.

What about the Activity (Bel7402/5-FU [33]) of the same compound?
Its Activity is 58.3%.

And the Activity (Bel7402/5-FU [34])?
The Activity was 29.2%.

What about the Activity (Bel7402/5-FU [35]) of the same compound?
Its Activity is 1.7%.

And the Activity (Bel7402/5-FU [36])?
Its Activity is “Active”.
